Format in all cases: functional
For test [1], the species on record is Cavia porcellus. In words: The inhibitory activity is expressed as percentage of the maximal contraction induced by Ach 3 mM at 3*10e-4 M.
The species named for test [2] is Cavia porcellus. In words: The -logEC50 value of genistein on ACh-precontracted rings, where EC50 is the concentration causing 50% relaxation.
For test [3], the species on record is Cavia porcellus. Description: The inhibitory activity is expressed as percentage of the maximal contraction induced by 30 mM KCl dependent on extracellular Ca+2 influx at 10e-4 M.
For test [4], the species on record is Cavia porcellus. Description: The inhibitory activity is expressed as percentage of the maximal contraction induced by histamine.
For test [5], the species on record is Cavia porcellus. In words: The inhibitory activity is expressed as percentage of the maximal contraction induced by KCl.
Test [6] is filed under the species Cavia porcellus. In words: The inhibitory activity is expressed as percentage of the maximal contraction induced by 30 mM KCl dependent on extracellular Ca+2 influx at 10e-5 M.

The structures appear in SMILES notation.

Turning to `O=c1c(-c2ccc(F)c(F)c2)coc2cc(O)cc(O)c12`, in test [1], the Max effect is 33.
For the compound `Cn1c(=O)c2[nH]cnc2n(C)c1=O` [AMINOPHYLLINE], in test [2], the 50% effective concentration (EC50) (usually the concentration that produces a half-maximal response) is 525 µM.
`CC(C)(C)NCC(O)c1ccc(O)c(CO)c1` (configuration not stated) [ALBUTEROL] showed a concentration giving a half-maximal response (EC50) in test [2] of 0.0759 µM.
As to `O=c1c(-c2ccc(F)cc2F)coc2cc(O)cc(O)c12`, the Max effect in test [3] is given as 41; in test [4], 73; in test [5], 78; in test [1], 36.
In the same order, the values of `O=c1c(-c2ccc(F)cc2)coc2cc(O)cc(O)c12` are 36, 69, 71 and 26.
For the compound `O=c1c(-c2ccc(O)cc2)coc2cc(O)cc(O)c12` [GENISTEIN], the Max effect in test [3] is listed as 79; in test [4], 98; in test [6] it was 35; in test [5], 88; in test [1] it was 66. In test [2], this compound had an EC50 of 195 µM.
